Assay results as given in patent US5006535A, “Substituted heterocylic 4-aminoquinoline derivatives as gastric acid secretion inhibitors” (Smith Kline & French Laboratories Ltd., priority 1988, dated 1991).
pIC50: −log10 of the molar value.

Assays:
[1] = tested on: pentagastrin stimulated gastric acid secretion; experiment: Rat Lumen Perfused Stomach (pentagastrin stimulated gastric acid secretion); assay type: in vivo; settings: for % inhibition of pentagastrin stimulated gastric acid secretion: i.v., 10 μmole/kg
Source text: B. Rat Lumen Perfused Stomach (pentagastrin stimulated gastric acid secretion).
Using a modification of the procedure described by Ghosh & Schild (Br. J. Pharmacology, 13, 54, 1958), the compounds of the following examples were found on i.v. administration at a concentration of 10 μmole/kg to cause an inhibition of pentagastrin stimulated gastric acid secretion as indicated in the following table. Results are given as % inhibition at 10 μmole/kg or ED50 (μM/kg): […]

[2] = molecular target: T1, H^+ K^+ ATPase (Sus scrofa, UniProt P19156); experiment: H^+ K^+ ATPase Activity (K^+ -stimulated ATPase activity in lyophilised gastric vesicles); assay type: biochemical; settings: pig lyophilised gastric vesicles, pH 7.0, 37°, 30 minutes
T1 construct: Lyophilised gastric vesicles were prepared from pig fundic mucosa; from tissue; host or cells: pig fundic mucosa, lyophilised gastric vesicles
T1 sequence (P19156 2-1034 limits assumed): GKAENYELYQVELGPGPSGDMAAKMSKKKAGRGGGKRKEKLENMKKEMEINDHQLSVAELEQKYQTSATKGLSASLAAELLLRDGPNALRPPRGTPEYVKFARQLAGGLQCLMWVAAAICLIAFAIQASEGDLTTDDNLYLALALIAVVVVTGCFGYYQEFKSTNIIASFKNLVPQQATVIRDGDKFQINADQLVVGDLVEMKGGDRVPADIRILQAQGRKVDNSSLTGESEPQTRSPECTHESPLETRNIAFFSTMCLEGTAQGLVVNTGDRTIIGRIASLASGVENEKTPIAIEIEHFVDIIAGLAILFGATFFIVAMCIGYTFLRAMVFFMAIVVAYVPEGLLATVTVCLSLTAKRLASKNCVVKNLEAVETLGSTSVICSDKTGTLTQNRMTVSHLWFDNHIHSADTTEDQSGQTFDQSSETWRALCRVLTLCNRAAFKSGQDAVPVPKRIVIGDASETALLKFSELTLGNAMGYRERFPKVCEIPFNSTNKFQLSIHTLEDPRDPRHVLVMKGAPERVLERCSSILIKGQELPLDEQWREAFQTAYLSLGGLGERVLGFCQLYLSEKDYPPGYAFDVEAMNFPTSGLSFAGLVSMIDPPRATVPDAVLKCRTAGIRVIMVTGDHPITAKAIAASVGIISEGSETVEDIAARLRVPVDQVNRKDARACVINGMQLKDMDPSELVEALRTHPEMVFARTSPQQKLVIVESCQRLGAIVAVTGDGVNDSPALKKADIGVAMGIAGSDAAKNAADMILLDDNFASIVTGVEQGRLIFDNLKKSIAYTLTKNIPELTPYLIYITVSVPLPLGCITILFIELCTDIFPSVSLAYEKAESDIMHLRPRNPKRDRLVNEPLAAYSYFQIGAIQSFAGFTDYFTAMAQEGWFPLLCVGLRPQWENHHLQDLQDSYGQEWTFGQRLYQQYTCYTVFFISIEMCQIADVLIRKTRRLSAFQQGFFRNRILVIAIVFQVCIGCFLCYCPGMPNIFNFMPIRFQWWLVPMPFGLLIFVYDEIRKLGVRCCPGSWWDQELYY
T1 sequence (P18434 whole entry partner): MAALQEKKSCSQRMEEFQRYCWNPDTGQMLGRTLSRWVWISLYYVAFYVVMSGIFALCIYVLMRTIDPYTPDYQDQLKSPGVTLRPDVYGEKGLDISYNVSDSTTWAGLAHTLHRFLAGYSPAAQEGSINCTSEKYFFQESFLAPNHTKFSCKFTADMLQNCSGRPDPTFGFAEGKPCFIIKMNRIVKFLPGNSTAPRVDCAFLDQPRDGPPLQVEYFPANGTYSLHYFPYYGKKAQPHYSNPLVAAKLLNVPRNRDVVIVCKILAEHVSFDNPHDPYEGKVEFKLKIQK
Protocol: The effects of a single high concentration (100 μM) of a compound of structure (I) on K-stimulated ATPase activity in lyophilised gastric vesicles was determined. Preferred compounds of structure (I) were also tested over a range of concentrations to determine IC50 values.
Lyophilised gastric vesicles were prepared from pig fundic mucosa after the method of Keeling et. al. (Biochem. Pharmacol., 34, 2967, 1985).
K^+ -stimulated ATPase activity was determined at 37° in the presence of the following: 10 mM Pipes/Tris buffer pH 7.0, 2 mM MgSO4, 1 mM KCl, 2 mM Na2 ATP and 3-6 μg protein/ml lyophilised gastric vesicles. After incubation for 30 minutes, the inorganic phosphate hydrolysed from ATP was determined by the method of Yoda and Hokin (Biochem. Biophys. Res. Commun. 40, 880, 1970).
Compounds of structure (I) were dissolved in dimethylsulphoxide which up to the highest concentration used had no effect on K^+ -stimulated ATPase activity.
The effect of the highest concentration of each compound of structure (I) on the recovery of a standard amount of inorganic phosphate was also determined.

Row | pIC50 [2] | Structure (SMILES) | % inhibition of pentagastrin stimulated gastric acid secretion [1] [%] | ED50 ([1]; iv, read-out: ED50, inhibition of pentagastrin stimulated gastric acid secretion) [µmol/kg]
1 | 5.47 | CCOC(=O)c1cnc2c(OC)cccc2c1Nc1cscc1OC [Example 5, Ethyl 8-methoxy-4-(4-methoxy-3-thienylamino)quinoline-3-carboxylate] | 41 | 
2 | 5.85 | CCCC(=O)c1cnc2c(OC)cccc2c1Nc1ccsc1CC [Example 2, 3-Butyryl-4-(2-ethyl-3-thienylamino)-8-methoxyquinoline] | 61 | 
3 | 6.28 | CCOC(=O)c1cnc2c(OC)cccc2c1Nc1cscc1C [Example 1, Ethyl 8-methoxy-4-(4-methyl-3-thienylamino)quinoline 3-carboxylate] |  | 4.62
4 |  | CCCC(=O)c1cnc2c(OC)cccc2c1Nc1ccsc1C(=O)OC [Example 3] | 48 | 
5 | 5.64 | CCCC(=O)c1cnc2c(OC)cccc2c1Nc1sccc1C [Example 4, 3-Butyryl-4-(3-methyl-2-thienylamino)-8-methoxyquinoline] | 58 | 
